We go through 24 molecules from patent US8293768B2, “Organic compounds” (Novartis AG, priority 2006, dated 2012).

Each structure is given as a SMILES string.

For orientation: melting point means the temperature of the solid-liquid transition.

In the case of `Cc1nc(N2CCN(Cc3csc4ccc(Cl)cc34)C2=O)sc1C(=O)NCc1cccnc1` [Example 32, 2-(3-((5-chlorobenzo[b]thiophen-3-yl)methyl)-2-oxoimidazolidin-1-yl)-4-methyl-N-(pyridin-3-ylmethyl)thiazole-5-carboxamide], the melting point lay in the range of 185 to 187 °C. In the case of `Cc1nc(N2CCN(Cc3nccc4ccccc34)C2=O)sc1C(=O)NCc1cccnc1` [Example 32.1, 2-(3-(isoquinolin-1-ylmethyl)-2-oxoimidazolidin-1-yl)-4-methyl-N-(pyridin-3-ylmethyl)thiazole-5-carboxamide] it was 151 to 153 °C; in that of `Cc1nc(N2CCN(Cc3cccc4cccnc34)C2=O)sc1C(=O)NCc1cccnc1` [Example 32.2, 4-methyl-2-(2-oxo-3-(quinolin-8-ylmethyl)imidazolidin-1-yl)-N-(pyridin-3-ylmethyl)thiazole-5-carboxamide], 225 to 228 °C; in that of `Cc1cc(CN2CCN(c3nc(C)c(C(=O)NCc4cccnc4)s3)C2=O)no1` [Example 32.3, 4-methyl-2-(3-((5-methylisoxazol-3-yl)methyl)-2-oxoimidazolidin-1-yl)-N-(pyridin-3-ylmethyl)thiazole-5-carboxamide], 185 to 188 °C. As for `Cc1nc(N2CCN(Cc3c(C)noc3-c3ccccc3)C2=O)sc1C(=O)NCc1cccnc1` [Example 32.4, 4-methyl-2-(3-((3-methyl-5-phenylisoxazol-4-yl)methyl)-2-oxoimidazolidin-1-yl)-N-(pyridin-3-ylmethyl)thiazole-5-carboxamide], the figure is 109 to 111 °C; as for `Cc1nc(N2CCN(Cc3ncoc3-c3ccccc3)C2=O)sc1C(=O)NCc1cccnc1` [Example 32.5, 4-methyl-2-(2-oxo-3-((5-phenyloxazol-4-yl)methyl)imidazolidin-1-yl)-N-(pyridin-3-ylmethyl)thiazole-5-carboxamide], 78 to 81 °C.

Molecule `Cc1nc(N2CCN(Cc3ccc4nonc4c3)C2=O)sc1C(=O)NCc1cccnc1` [Example 32.6, 2-(3-(benzo[c][1,2,5]oxadiazol-5-ylmethyl)-2-oxoimidazolidin-1-yl)-4-methyl-N-(pyridin-3-ylmethyl)thiazole-5-carboxamide] yielded a melting point of 110 to 112 °C. In the case of `Cc1nc(N2CCN(Cc3ccc4nsnc4c3)C2=O)sc1C(=O)NCc1cccnc1` [Example 32.7, 2-(3-(benzo[c][1,2,5]thiadiazol-5-ylmethyl)-2-oxoimidazolidin-1-yl)-4-methyl-N-(pyridin-3-ylmethyl)thiazole-5-carboxamide] it was 105 to 107 °C; in that of `Cc1nc(N2CCN(Cc3cccnc3)C2=O)sc1C(=O)NCc1ccccc1` [Example 32.9, N-benzyl-4-methyl-2-(2-oxo-3-(pyridin-3-ylmethyl)imidazolidin-1-yl)thiazole-5-carboxamide], 110 to 113 °C; in that of `Cc1cnc(CNC(=O)c2sc(N3CCN(Cc4ccc(F)cc4)C3=O)nc2C)cn1` [Example 32.10, 2-(3-(4-fluorobenzyl)-2-oxoimidazolidin-1-yl)-4-methyl-N-((5-methylpyrazin-2-yl)methyl)thiazole-5-carboxamide], 191 to 193 °C. In the case of `Cc1nc(N2CCN(Cc3ccc(F)cc3)C2=O)sc1C(=O)NCc1ncco1` [Example 32.11, 2-(3-(4-fluorobenzyl)-2-oxoimidazolidin-1-yl)-4-methyl-N-(oxazol-2-ylmethyl)thiazole-5-carboxamide] it was 187 to 189 °C; in that of `Cc1ncc(CNC(=O)c2sc(N3CCN(Cc4ccc(F)cc4)C3=O)nc2C)s1` [Example 32.12, 2-(3-(4-fluorobenzyl)-2-oxoimidazolidin-1-yl)-4-methyl-N-((2-methylthiazol-5-yl)methyl)thiazole-5-carboxamide], 213 to 215 °C; in that of `Cc1nc(N2CCN(Cc3ccc(F)cc3)C2=O)sc1C(=O)NCc1cnn(C)c1` [Example 32.13, 2-(3-(4-fluorobenzyl)-2-oxoimidazolidin-1-yl)-4-methyl-N-((1-methyl-1H-pyrazol-4-yl)methyl)thiazole-5-carboxamide], 173 to 175 °C.

`Cc1nc(N2CCN(Cc3ccc(F)cc3)C2=O)sc1C(=O)NCc1ccncn1` [Example 32.14, 2-(3-(4-fluorobenzyl)-2-oxoimidazolidin-1-yl)-4-methyl-N-(pyrimidin-4-ylmethyl)thiazole-5-carboxamide] returned a melting point of 175 to 176 °C. Molecule `Cc1nc(N2CCN(Cc3ccc(F)cc3)C2=O)sc1C(=O)NCc1cccnn1` [Example 32.15, 2-(3-(4-fluorobenzyl)-2-oxoimidazolidin-1-yl)-4-methyl-N-(pyridazin-3-ylmethyl)thiazole-5-carboxamide] returned a melting point of 222 to 225 °C. As for `Cc1nc(N2CCN(Cc3ccc(F)cc3)C2=O)sc1C(=O)NCc1ncccn1` [Example 32.16, 2-(3-(4-fluorobenzyl)-2-oxoimidazolidin-1-yl)-4-methyl-N-(pyrimidin-2-ylmethyl)thiazole-5-carboxamide], the figure is 205 to 207 °C. As for `Cc1nc(N2CCN(Cc3ccc(F)cc3)C2=O)sc1C(=O)NCc1cnccn1` [Example 32.17, 2-(3-(4-fluorobenzyl)-2-oxoimidazolidin-1-yl)-4-methyl-N-(pyrazin-2-ylmethyl)thiazole-5-carboxamide], the figure is 185 to 187 °C; as for `Cc1nc(N2CCN(Cc3ccc(F)cc3)C2=O)sc1C(N)=O` [Example 32.18, 2-(3-(4-fluorobenzyl)-2-oxoimidazolidin-1-yl)-4-methylthiazole-5-carboxamide], 201 to 203 °C; as for `CNC(=O)c1sc(N2CCN(Cc3ccc(F)cc3)C2=O)nc1C` [Example 32.19, 2-(3-(4-fluorobenzyl)-2-oxoimidazolidin-1-yl)-N,4-dimethylthiazole-5-carboxamide], 225 to 227 °C. As for `Cc1nc(N2CCN(CCc3c[nH]c4ccccc34)C2=O)sc1C(=O)NCc1cccnc1` [Example 32.20, 2-(3-(2-(1H-indol-3-yl)ethyl)-2-oxoimidazolidin-1-yl)-4-methyl-N-(pyridin-3-ylmethyl)thiazole-5-carboxamide], the figure is 198 to 201 °C.

Turning to `Cc1nc(N2CCN(Cc3ccc(F)cc3)C2=O)sc1C(=O)NCc1ccccn1` [Example 32.21, 2-(3-(4-fluorobenzyl)-2-oxoimidazolidin-1-yl)-4-methyl-N-(pyridin-2-ylmethyl)thiazole-5-carboxamide], the melting point is 183 to 185 °C.

In turn, `Cc1nc(N2CCN(Cc3ccc(F)cc3)C2=O)sc1C(=O)N(C)C` [Example 32.22, 2-(3-(4-fluorobenzyl)-2-oxoimidazolidin-1-yl)-N,N,4-trimethylthiazole-5-carboxamide] returned a melting point of 162 to 164 °C. In the case of `Cc1nc(N2CCN(Cc3ccc(F)cc3)C2=O)sc1C(=O)NCc1ccncc1` [Example 32.23, 2-(3-(4-fluorobenzyl)-2-oxoimidazolidin-1-yl)-4-methyl-N-(pyridin-4-ylmethyl)thiazole-5-carboxamide] it was 146 to 149 °C; in that of `Cc1nc(N2CCN(CC3CC3)C2=O)sc1C(=O)NCc1ccccn1` [Example 32.24, 2-(3-(cyclopropylmethyl)-2-oxoimidazolidin-1-yl)-4-methyl-N-(pyridin-2-ylmethyl)thiazole-5-carboxamide], 148 to 151 °C.
